Patent US5925631A, “Alkylated styrenes as prodrugs to COX-2 inhibitors” (Merck & Co., Inc., priority 1998, dated 1999)

test system: Rat Paw Edema; assay: Rat paw edema assay (carrageenan); assay type: in vivo, rat (Male Sprague-Dawley); conditions: po, p.o. 1 h before subplantar carrageenan (500 μg per paw), paw volume at 3 h, read-out: Rat Paw Edema ED50, dose of prodrug required to reduce edema formation by 50% as compared to vehicle control
Procedure: Male Sprague-Dawley rats (150-200 g) are fasted overnight and are given, p0, either vehicle (1% methocel or 5% Tween 80) or a test compound. One hr later, a line is drawn using a permanent marker at the level above the ankle in one hind paw to define the area of the paw to be monitored. The paw volume (V0) is measured using a plethysmometer (Ugo-Basile, Italy) based on the principle of water displacement. The animals are then injected subplantarly with 50 μl of 1% carrageenan solution in saline (FMC Corp, Me.) into the paw using an insulin syringe with a 25-gauge needle (i.e. 500 μg carrageenan per paw). Three hr later, the paw volume (V3) is measured and the increases in paw volume (V3 - VO) are calculated. The animals are sacrificed by CO2 asphyxiation and the absence or presence of stomach lesions scored. Data is compared with the vehicle-control values and percent inhibition calculated. All treatment groups are coded to eliminate observer bias.
Compounds of the present invention are prodrugs of inhibitors of COX-2 and are thereby useful in the treatment of COX-2 mediated diseases as enumerated above. The extent of conversion of these compounds to the active COX-2 inhibitors may be seen in the representative results shown in Table III along with their antiinflammatory activity. The plasma levels indicated are the maximum rat plasma concentrations of the active COX-2 inhibitor observed when the rat was treated with a 20 mg/kg oral dose of the indicated prodrug. The ED50 values in the rat paw edema assay represent the dose of prodrug required to reduce edema formation by 50% as compared to the vehicle control.

`COC(=O)/C(=C(/c1ccc(S(C)(=O)=O)cc1)C(C)(C)OC)c1cccc(F)c1` [Example 6, Methyl 2-(3-fluorophenyl)-4-methoxy-4-methyl-3-(4-(methylsulfonyl)phenyl)-2-(Z)-pentenoate] and `COC(C)(C)/C(=C(\C(=O)N(C)C)c1cccc(F)c1)c1ccc(S(C)(=O)=O)cc1` [Example 4, N,N-Dimethyl-2-(3-fluorophenyl)-4-methoxy-4-methyl-3-(4-(methylsulfonyl)phenyl)-2-(Z)-pentenamide] are within 1.5-fold of each other in ED50: 2.1 mg/kg for the first, 1.6 mg/kg for the second.

With `CC(C)(O)/C(=C(\CO)c1cccc(F)c1)c1ccc(S(C)(=O)=O)cc1` [Example 1, 2-(3-Fluorophenyl)-4-methyl-3-(4-(methylsulfonyl)-phenyl)-2-(Z)-penten-1,4-diol] the ED50 was 10 mg/kg.
